Experiments:
[1] = Ex vivo transcorneal permeation through isolated rabbit cornea; format: in vitro ADME; details: donor RBB pH 7.6 with 0.02% w/w PCA and 0.04% w/w hyaluronic acid, 32° C.
Description: Evaluation of PCA Ex Vivo Transcorneal Permeation of a Composition According to Example 2 Through Isolated Rabbit Cornea.
For the determination of ex vivo corneal permeability, rabbit corneas obtained after proptosis of the eye, performed immediately after the animal euthanization, were used. The rabbits were New Zealand albino rabbits (n=3) and were euthanized by intravenous injection of Pentothal sodium (Farmaceutici Gellini, Aprilia, Italy). After the eyes were proptosed, the cornea, with 2 mm of sclera, was immediately excised and mounted in a perfusion apparatus. During the preparation, particular attention was paid to prevent the exfoliation of the corneal epithelium and its contact with any solid surfaces. […]
After the permeation experiment start, at appropriate intervals of time (15, 30, 60, 90, 120, 180 and 240 minutes), 0.50 mL of solution were withdrawn from the receiving compartment (endothelial side) and replaced with fresh RBB. At the end of the experiment, the entire donor phase was collected and submitted to quantitative determination of the active ingredient in a similar manner as provided for the samples of the receiving phase.
Quantitative analysis of PCA was performed by HPLC using a C18 reverse phase column C18 (Bondclone 10 μm 300×3.9 mm), and the eluent was a 98:2 mixture buffer solution to acetonitrile. […]

[2] = Residence in the ocular tissue; details: stated in the description, no test described
[3] = Pescina et al, 2015; cited from earlier work

O=C1CCC(C(=O)O)N1 (stereo not shown) [PCA, Pyrrolidone carboxylic acid]
Papp at 240 min, 0.02 % w/w ([1]; New Zealand albino, isolated rabbit cornea, read-out: PCA corneal permeability): 3.95 ×10⁻⁶ cm/s | PCA found in the receiving compartment, of the amount present in the donor compartment ([1]; end of the experiment (240 minutes)): 0.051 % w/w | Period of time PCA remains in the ocular tissue [2]: greater than 3 hours

O=C1OC2(c3ccc(O)cc3Oc3cc(O)ccc32)c2ccccc21 [sodium fluorescein]
permeability through porcine cornea [3]: 0.05 10^−5 cm/s

Reference: US10456374B2, “Pyrrolidone carboxylic acid (PCA) for ophthalmic use” (Laboratori Baldacci S.p.A., priority 2015, dated 2019)
